Reference: patent US9944624B2, “Substituted amino triazoles useful as human chitinase inhibitors” (OncoArendi Therapeutics S.A., priority 2015, dated 2018)
pIC50: −log10 of the molar value.

Legend:
[1] = target: recombinant human AMCase (Homo sapiens (Human), UniProt Q9BZP6); assay: Human AMCase activity assay (fluorescent 4MU substrate); format: biochemical; conditions: citrate buffer pH 5.2, 37° C., 60 minutes; substrate 4-methylumbelliferyl B-D-N,N′-diacetylchitobioside hydrate; read-out: Activity on hAMCase, IC50
Sequence of recombinant human AMCase (Q9BZP6 22-476): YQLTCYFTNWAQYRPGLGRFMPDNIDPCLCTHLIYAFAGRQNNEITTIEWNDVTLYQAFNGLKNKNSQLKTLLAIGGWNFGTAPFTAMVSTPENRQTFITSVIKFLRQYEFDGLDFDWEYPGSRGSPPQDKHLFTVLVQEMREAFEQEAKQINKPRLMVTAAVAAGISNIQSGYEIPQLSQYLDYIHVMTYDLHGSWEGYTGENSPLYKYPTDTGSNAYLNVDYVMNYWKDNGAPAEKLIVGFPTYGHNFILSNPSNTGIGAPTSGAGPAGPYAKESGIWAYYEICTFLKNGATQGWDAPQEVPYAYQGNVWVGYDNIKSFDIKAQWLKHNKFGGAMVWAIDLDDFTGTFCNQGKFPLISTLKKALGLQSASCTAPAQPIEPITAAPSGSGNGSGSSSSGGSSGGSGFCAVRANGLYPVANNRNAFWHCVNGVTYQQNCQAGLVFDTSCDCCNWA

[2] = target: recombinant human CHIT1 (Homo sapiens (Human), UniProt Q13231); assay: Human CHIT1 activity assay (fluorescent 4MU substrate); format: biochemical; conditions: citrate buffer pH 5.2, 37° C., 60 minutes; substrate 4-methylumbelliferyl β-D-N,N′,N″-triacetylchitotriose; read-out: Activity on hCHIT1, IC50
Sequence of recombinant human CHIT1 (Q13231 22-466): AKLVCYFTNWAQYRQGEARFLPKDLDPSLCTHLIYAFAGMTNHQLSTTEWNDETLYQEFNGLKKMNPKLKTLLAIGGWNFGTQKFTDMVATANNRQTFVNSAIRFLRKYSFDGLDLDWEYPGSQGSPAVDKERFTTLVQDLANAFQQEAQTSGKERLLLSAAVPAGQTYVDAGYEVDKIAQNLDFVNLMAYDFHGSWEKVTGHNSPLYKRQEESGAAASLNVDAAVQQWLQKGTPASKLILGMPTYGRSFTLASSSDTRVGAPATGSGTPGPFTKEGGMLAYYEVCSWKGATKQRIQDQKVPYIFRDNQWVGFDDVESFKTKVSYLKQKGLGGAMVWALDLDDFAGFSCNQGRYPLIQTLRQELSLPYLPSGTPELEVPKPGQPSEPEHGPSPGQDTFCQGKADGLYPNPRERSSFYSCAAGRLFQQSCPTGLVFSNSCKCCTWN

Row | Structure (SMILES) | pIC50 [1] | pIC50 [2]
1 | Nc1nnc(N2CCC(N3CC(C(=O)O)CC[C@@H]3Cc3ccc(Cl)cc3)CC2)[nH]1 (stereo partly drawn) [Example 17, (6R)-1′-(5-amino-4H-1,2,4-triazol-3-yl)-6-(4-chlorobenzyl)-[1,4′-bipiperidine]-3-carboxylic acid] | > 7.00 | 
2 | Nc1nnc(N2CCC(N3C[C@@H]4CCCN4C[C@@H]3Cc3ccc(Cl)cc3)CC2)[nH]1 [Example 49, 5-(4-((3S,8aS)-3-(4-chlorobenzyl)hexahydropyrrolo[1,2-a]pyrazin-2(1H)-yl)piperidin-1-yl)-4H-1,2,4-triazol-3-amine] | > 7.00 | 
3 | C[C@H]1CN(C2CCN(c3nnc(N)[nH]3)CC2)[C@@H](Cc2ccc(Cl)cc2)CN1CC(=O)O [Example 41, 2-((2S,5S)-4-(1-(5-amino-4H-1,2,4-triazol-3-yl)piperidin-4-yl)-5-(4-chlorobenzyl)-2-methylpiperazin-1-yl)acetic acid] | > 7.00 | 
4 | CN1C[C@H](Cc2ccc(Cl)cc2)N(C2CCN(c3nnc(N)[nH]3)CC2)Cc2cc(Cl)ccc21 [Example 58, (S)-5-(4-(7-chloro-3-(4-chlorobenzyl)-1-methyl-2,3-dihydro-1H-benzo[e][1,4]diazepin-4(5H)-yl)piperidin-1-yl)-4H-1,2,4-triazol-3-amine] | > 7.00 | 6.00 to 7.00
5 | Nc1nnc(N2CCC(N3CCOC[C@@H]3Cc3ccc(Br)cc3)CC2)[nH]1 [Example 3, (S)-5-(4-(3-(4-bromobenzyl)morpholino)piperidin-1-yl)-4H-1,2,4-triazol-3-amine] | > 7.00 | 
6 | Nc1nnc(N2CCC(N3Cc4ccccc4OC[C@@H]3Cc3ccc(Cl)cc3)CC2)[nH]1 [Example 59, (S)-5-(4-(3-(4-chlorobenzyl)-2,3-dihydrobenzo[f][1,4]oxazepin-4(5H)-yl)piperidin-1-yl)-4H-1,2,4-triazol-3-amine] | > 7.00 | 6.00 to 7.00
7 | CCOC(=O)C1CC[C@H](Cc2ccc(Cl)cc2)N(C2CCN(c3nnc(N)[nH]3)CC2)C1 (stereo partly drawn) [Example 16, ethyl (6R)-1′-(5-amino-4H-1,2,4-triazol-3-yl)-6-(4-chlorobenzyl)-[1,4′-bipiperidine]-3-carboxylate] | > 7.00 | 
8 | CC(C)CN1CCN(C2CCN(c3nnc(N)[nH]3)CC2)[C@@H](Cc2ccc(Cl)cc2)C1 [Example 29, (S)-5-(4-(2-(4-chlorobenzyl)-4-isobutylpiperazin-1-yl)piperidin-1-yl)-4H-1,2,4-triazol-3-amine] |  | 4.00 to 5.00
9 | COC(=O)CN1C[C@H](Cc2ccc(Cl)cc2)N(C2CCN(c3nnc(N)[nH]3)CC2)C[C@@H]1C [Example 40, methyl 2-((2S,5S)-4-(1-(5-amino-4H-1,2,4-triazol-3-yl)piperidin-4-yl)-5-(4-chlorobenzyl)-2-methylpiperazin-1-yl)acetate] | > 7.00 | 
10 | Nc1nnc(N2CCC(N3CCCCC3C(O)c3ccc(Cl)cc3)CC2)[nH]1 (centres unmarked) [Example 21, (1′-(5-amino-4H-1,2,4-triazol-3-yl)-[1,4′-bipiperidin]-2-yl)(4-chlorophenyl)methanol] |  | 4.00 to 5.00
11 | Nc1nnc(N2CCC(N3CCCC[C@@H]3Cc3ccc(Cl)cc3)CC2)[nH]1 [Example 15, (R)-5-(2-(4-chlorobenzyl)-[1,4′-bipiperidin]-1′-yl)-4H-1,2,4-triazol-3-amine] | > 7.00 | 
12 | CC1(C(=O)O)CC[C@H](Cc2ccc(Cl)cc2)N(C2CCN(c3nnc(N)[nH]3)CC2)C1 (stereo partly drawn) [Example 18, (6R)-1′-(5-amino-4H-1,2,4-triazol-3-yl)-6-(4-chlorobenzyl)-3-methyl-[1,4′-bipiperidine]-3-carboxylic acid] | > 7.00 | 
13 | CC(C)C[C@H]1CN(C2CCN(c3nnc(N)[nH]3)CC2)[C@@H](Cc2ccc(Cl)cc2)CN1C [Example 33, 5-(4-((2S,5S)-2-(4-chlorobenzyl)-5-isobutyl-4-methylpiperazin-1-yl)piperidin-1-yl)-4H-1,2,4-triazol-3-amine] | > 7.00 | 5.00 to 6.00
14 | Nc1nnc(N2CCC(N3CCNC[C@@H]3Cc3ccc(Cl)cc3)CC2)[nH]1 [Example 26, (S)-5-(4-(2-(4-chlorobenzyl)piperazin-1-yl)piperidin-1-yl)-4H-1,2,4-triazol-3-amine] |  | 5.00 to 6.00
15 | Nc1nnc(N2CCC(N3C[C@@H](F)[C@@H]3Cc3ccc(Cl)cc3)CC2)[nH]1 [Example 23, 5-(4-((2S,3R)-2-(4-chlorobenzyl)-3-fluoroazetidin-1-yl)piperidin-1-yl)-4H-1,2,4-triazol-3-amine] |  | 4.00 to 5.00
16 | CO[C@H]1CN(C2CCN(c3nnc(N)[nH]3)CC2)[C@H]1Cc1ccc(Cl)cc1 [Example 22, 5-(4-((2S,3S)-2-(4-chlorobenzyl)-3-methoxyazetidin-1-yl)piperidin-1-yl)-4H-1,2,4-triazol-3-amine] |  | 6.00 to 7.00

Row | Structure (SMILES) | pIC50 [1] | pIC50 [2]
17 | CO[C@@H]1C[C@H](Cc2ccc(Cl)cc2)N(C2CCN(c3n[nH]c(N)n3)CC2)C1 [Example 51, 3-(4-((2S,4R)-2-(4-chlorobenzyl)-4-methoxypyrrolidin-1-yl)piperidin-1-yl)-1H-1,2,4-triazol-5-amine] |  | > 7.00
18 | Nc1nnc(N2CCC(N3Cc4cc(F)ccc4OC[C@@H]3Cc3ccc(Cl)cc3)CC2)[nH]1 [Example 60, (S)-5-(4-(3-(4-chlorobenzyl)-7-fluoro-2,3-dihydrobenzo[f][1,4]oxazepin-4(5H)-yl)piperidin-1-yl)-4H-1,2,4-triazol-3-amine] | > 7.00 | 6.00 to 7.00
19 | CN1C[C@H](Cc2ccc(Cl)cc2)N(C2CCN(c3nnc(N)[nH]3)CC2)C[C@@H]1Cc1ccc(Cl)cc1 [Example 31, 5-(4-((2S,5S)-2,5-bis(4-chlorobenzyl)-4-methylpiperazin-1-yl)piperidin-1-yl)-4H-1,2,4-triazol-3-amine] | > 7.00 | 5.00 to 6.00
20 | Nc1nnc(N2CCC(N3CCOC[C@@H]3Cc3ccc(Cl)cc3)CC2)[nH]1 [Example 1, (S)-5-(4-(3-(4-chlorobenzyl)morpholino)piperidin-1-yl)-4H-1,2,4-triazol-3-amine] | > 7.00 | 
21 | Nc1nnc(N2CCC(N3Cc4ccncc4OC[C@@H]3Cc3ccc(Cl)cc3)CC2)[nH]1 [Example 63, (S)-5-(4-(3-(4-chlorobenzyl)-2,3-dihydropyrido[4,3-f][1,4]oxazepin-4(5H)-yl)piperidin-1-yl)-4H-1,2,4-triazol-3-amine] | > 7.00 | 5.00 to 6.00
22 | CN1C[C@H](Cc2ccc(Cl)cc2)N(C2CCN(c3nnc(N)[nH]3)CC2)Cc2ccccc21 [Example 57, (S)-5-(4-(3-(4-chlorobenzyl)-1-methyl-2,3-dihydro-1H-benzo[e][1,4]diazepin-4(5H)-yl)piperidin-1-yl)-4H-1,2,4-triazol-3-amine] | > 7.00 | 6.00 to 7.00
23 | Nc1nnc(N2CCC(N3CCOCC3Cc3ccc(Cl)cc3)CC2)[nH]1 (centres unmarked) [Example 2, 5-(4-(3-(4-chlorobenzyl)morpholino)piperidin-1-yl)-4H-1,2,4-triazol-3-amine] |  | 6.00 to 7.00
24 | CN1C[C@H](Cc2ccc(Cl)cc2)N(C2CCN(c3nnc(N)[nH]3)CC2)C[C@@H]1CC1CCCCC1 [Example 32, 5-(4-((2S,5S)-2-(4-chlorobenzyl)-5-(cyclohexylmethyl)-4-methylpiperazin-1-yl)piperidin-1-yl)-4H-1,2,4-triazol-3-amine] | > 7.00 | 5.00 to 6.00
25 | C[C@H]1CN(C2CCN(c3nnc(N)[nH]3)CC2)[C@@H](Cc2ccc(Cl)cc2)CN1C [Example 27, 5-(4-((2S,5S)-2-(4-chlorobenzyl)-4,5-dimethylpiperazin-1-yl)piperidin-1-yl)-4H-1,2,4-triazol-3-amine] |  | 5.00 to 6.00
26 | Nc1nnc(N2CCC(N3Cc4cc(Cl)ccc4OC[C@@H]3Cc3ccc(Cl)cc3)CC2)[nH]1 [Example 61, (S)-5-(4-(7-chloro-3-(4-chlorobenzyl)-2,3-dihydrobenzo[f][1,4]oxazepin-4(5H)-yl)piperidin-1-yl)-4H-1,2,4-triazol-3-amine] | > 7.00 | 5.00 to 6.00
27 | CCOC[C@H]1CN(C2CCN(c3nnc(N)[nH]3)CC2)[C@@H](Cc2ccc(Cl)cc2)CO1 [Example 11, 5-(4-((2R,5S)-5-(4-chlorobenzyl)-2-(ethoxymethyl)morpholino)piperidin-1-yl)-4H-1,2,4-triazol-3-amine] | > 7.00 | 
28 | CO[C@H]1C[C@H](Cc2ccc(Cl)cc2)N(C2CCN(c3nnc(N)[nH]3)CC2)C1 [Example 46, 5-(4-((2S,4S)-2-(4-chlorobenzyl)-4-methoxypyrrolidin-1-yl)piperidin-1-yl)-4H-1,2,4-triazol-3-amine] |  | > 7.00
29 | CC1(O)C[C@H](Cc2ccc(Cl)cc2)N(C2CCN(c3nnc(N)[nH]3)CC2)C1 (stereo partly drawn) [Example 48, (5S)-1-(1-(5-amino-4H-1,2,4-triazol-3-yl)piperidin-4-yl)-5-(4-chlorobenzyl)-3-methylpyrrolidin-3-ol] | > 7.00 | 6.00 to 7.00
30 | COC(C)(C)[C@H]1CN(C2CCN(c3nnc(N)[nH]3)CC2)[C@@H](Cc2ccc(Cl)cc2)CO1 [Example 14, 5-(4-((2R,5S)-5-(4-chlorobenzyl)-2-(2-methoxypropan-2-yl)morpholino)piperidin-1-yl)-4H-1,2,4-triazol-3-amine] | > 7.00 | 
31 | Nc1nnc(N2CCC(N3Cc4cc(Cl)cc(Cl)c4OC[C@@H]3Cc3ccc(Cl)cc3)CC2)[nH]1 [Example 62, (S)-5-(4-(7,9-dichloro-3-(4-chlorobenzyl)-2,3-dihydrobenzo[f][1,4]oxazepin-4(5H)-yl)piperidin-1-yl)-4H-1,2,4-triazol-3-amine] | > 7.00 | 4.00 to 5.00
32 | C=C1COC[C@H](Cc2ccc(Cl)cc2)N(C2CCN(c3nnc(N)[nH]3)CC2)C1 [Example 55, (S)-5-(4-(3-(4-chlorobenzyl)-6-methylene-1,4-oxazepan-4-yl)piperidin-1-yl)-4H-1,2,4-triazol-3-amine] | > 7.00 | 6.00 to 7.00
